Assay results taken from ChEMBL document CHEMBL1129378, “Octanol-, chloroform-, and propylene glycol dipelargonat-water partitioning of morphine-6-glucuronide and other related opiates” (J Med Chem, 1996).

Assays:
[1] = octanol/water
Description: (§1) Partition coefficient of Zwitterion (logD)

[2] = octanol/water; remark: listed apart in the source
Description: Partition coefficient of cation (logD)

physchem [3] = details: buffer, pH 7.4
Description: Log D of compound; LogD at pH 7.4

physchem [4] = details: octanol/water
Description: as §1

physchem [5] = details: octanol/water; remark: listed apart in the source
Description: Partition coefficient of anion (logD)

physchem [6] = assay: physchem
physchem [7] = assay: physchem; remark: listed apart in the source
[8] = Phenolic pKa of compound with […] NaCl; assay type: physicochemical
[9] = Log D of compound (Chloroform water medium); assay type: physicochemical; details: buffer
[10] = Partition coefficient (logD) of Zwitterion (chloroform/water); assay type: physicochemical
[11] = Partition coefficient (logD) of anion (chloroform/water); assay type: physicochemical
[12] = Partition coefficient (logP) (chloroform); assay type: physicochemical
physchem [13] = assay: physchem; remark: listed apart in the source
Description: Sugar COOH pKa of compound

Compound | logD [2] | logD (physchem [3]) | logD (physchem [4]) | logD (physchem [5]) | pKa (physchem [6]) | further results
COc1ccc2c3c1O[C@H]1[C@@H](O)C=C[C@H]4[C@@H](C2)N(C)CC[C@@]341 [CODEINE] | < -2 | 0.22 |  |  |  | logD [1]: 1.19
CC(=O)O[C@H]1C=C[C@H]2[C@H]3Cc4ccc(O)c5c4[C@@]2(CCN3C)[C@H]1O5 | < -2 | 0.61 | 1.55 | -0.42 | 8.19 | pKa (physchem [7]): 9.55
CO[C@]12CC[C@@]3(C[C@@H]1[C@](C)(O)C(C)(C)C)[C@H]1Cc4ccc(O)c5c4[C@@]3(CCN1CC1CC1)[C@H]2O5 [BUPRENORPHINE] | 0.45 | 3.93 |  | 3.24 | 8.31 | pKa [8]: 9.62
CN1CC[C@]23c4c5ccc(O)c4O[C@H]2[C@@H](O[C@@H]2O[C@H](C(=O)O)[C@@H](O)[C@H](O)[C@H]2O)C=C[C@H]3[C@H]1C5 [MORPHINE GLUCURONIDE] |  |  |  |  |  | pKa (physchem [7]): 9.42
COc1ccc2c3c1O[C@H]1[C@@H](O)C=C[C@H]4[C@@H](C2)NCC[C@@]341 [NORCODEINE] | < -2 | -1.26 | 0.69 | < -2 | 9.23 | 
CN1CC[C@]23c4c5ccc(O[C@@H]6O[C@H](C(=O)O)[C@@H](O)[C@H](O)[C@H]6O)c4O[C@H]2[C@@H](O)C=C[C@H]3[C@H]1C5 [MORPHINE 3-GLUCURONIDE] | < -2 | -1.12 | -1.1 | -1.45 |  | logD [9]: -1.18; logD [10]: -1.12; logD [11]: < -2; logP [12]: -1.12
Cc1cc(=O)oc2cc(O[C@@H]3O[C@H](C(=O)O)[C@@H](O)[C@H](O)[C@H]3O)ccc12 |  | -1.32 | -0.39 | -1.3 |  | pKa (physchem [13]): 2.82
CC(=O)Oc1ccc2c3c1O[C@H]1[C@@H](OC(C)=O)C=C[C@H]4[C@@H](C2)N(C)CC[C@@]341 [DIACETYLMORPHINE] | -0.94 | 0.85 | 1.58 |  |  | 
